Measurements: US7671091B2, “Penis enlargement” (priority 2004, dated 2010)

What was measured:
[1] = test system: human penis; experiment: Permanent increase in erect penis length and girth after repeated intracavernosal vasodilator treatment of male patients; type: in vivo
Excerpt: The term “penis length” refers to the maximum length of the penis, as measured along the dorsal surface of the penis from the symphysis pubis to the tip or end of the glans penis when the glans penis is pulled manually and put under tension. Preferably, the measurement is taken when the penis is fully erect.
The term “penis girth” refers to the largest measured value obtained for circumference of the erect penis, as measured in the midshaft region (middle third). Preferably, the measurement is taken when the penis is fully erect.
An engorgement is deemed “cumulative prolonged” when an erectile response lasts for at least 3 hours over a 24 hours period.
(§1) Therefore, a “cumulative prolonged engorgement” would be an erectile response that is over 40% for a period of at least 3 hours in a 24 hours period.
A patient was treated with intracavernosal injections of a vasodilator, prostaglandin E1, on a regular basis (approximately four to five times per week) over an 18 month treatment period. […] The quantity of medication was adjusted from time to time in accordance with the patient's response, which was monitored at least weekly. […]
A patient was treated with intracavernosal injections of a quadruple mix of the vasodilators prostaglandin E1, Atropine, Chlorpromazine and Papavarine on a regular basis (approximately two to four times per week) over a 4-month treatment period. […] The quantity of medication was adjusted in accordance with the patient's response. The potentiator dihydrotestosterone 5% ointment was administered […] starting two weeks before starting the IC injections of the vasodilators Atropine, Chlorpromazine and Papavarine and prostaglandin.

[2] = test system: human penis; settings: in vivo
Protocol: as §1
(§2) The quantity of medication was adjusted in accordance with the patient's response.
as §2

[3] = Example 1: patient, 18-month treatment

Structure (SMILES)	increase in erect penis length ([1]; Example 6: patient, 4 months, frequently with oral Viagra, dihydrotestosterone gel)	erect penis length after treatment ([1]; Example 6: patient, intracavernosal 2-4 times per week, 4 months, frequently combined with oral Viagra, potentiator dihydrotestosterone gel, from 5.2 inches)	tolerability (sensitivity) [2]	increase in erect penis girth [1, 3]	increase in erect penis length [1, 3]	fully erect penis girth after treatment ([1]; Example 1: patient, 18-month treatment, from 3.7 inches)	fully erect penis length after treatment ([1]; Example 1: patient, intracavernosal, approx. 4-5 times per week, 18-month treatment, from 5.8 inches)	increase in erect penis length ([1]; Example 10: patient, 3 months, with daily subcutaneous dihydrotestosterone)	erect penis length after treatment ([1]; Example 10: patient, two separate IC injections per treatment day, 2-5 times per week, 3 months, dihydrotestosterone 15 mg subcutaneously into the penis daily, from 6.3 inches)
Cc1ccc(N(CC2=NCCN2)c2cccc(O)c2)cc1 [phentolamine]	~25%	6.5 inches							
CCCCC[C@H](O)/C=C/[C@H]1[C@H](O)CC(=O)[C@@H]1CCCCCCC(=O)O [prostaglandin E1]			aching and pain at higher doses	~56%	~48%	5.8 inches	8.6 inches	~13%	7.1 inches
